Test results from EP1043318A1 (priority 1997, dated 1999).

Legend:
M. tuberculosis 61 (S) = experiment: Activity on pathogenic mycobacteria, growth on Lewenstein-Jensen medium (sensitive strain); assay type: cell-based; conditions: strain sensitive to control preparations; concentration of the preparation 50.0 g/l (table title); incubated 30 days
[1] = system: primary culture of humans lymphocytes; experiment: Interferon-inducing activity in primary lymphocyte culture (immunoenzyme determination of INF); assay type: cell-based, human
[2] = system: herpes simplex type 1 (VPG-1/Leningrad/248/88); experiment: Antiviral activity on herpes virus, cytopathic effect in Vero cell culture; assay type: cell-based, herpes simplex virus; conditions: unchanged Vero cells after 36 hours
C. trachomatis D323 = experiment: Activity on Chlamydia trachomatis in infected cell culture; assay type: cell-based; conditions: for No. of unchanged cells: 100 viewing fields, cell control 9.000, infected cells 6.000
Acute toxicity in mice = experiment: Acute toxicity in mice; set-up: species or system non-linebred white mice; conditions: mouse, in vivo, iv, by mouth or intravenously, 14 days observation
Procedure: Acute toxicity was determined on non-linebred white mice weighing 18-20 g. The claimed compounds were prepared in a range of concentrations: 1500, 700, 500, 100, 20 and 5 µg/kg. Five animals were used to study each specific concentration of a compound. The preparation was administered once a day by mouth of intravenously. The observation period was 14 days On days 1, 8 and 15 the animals in every group were weighed. For a control we used animals who received the emulsion without the test compounds. All animals, both those that died in the course of the experiment and those that survived to the end of the experiment, were opened to allow macroscopic examination of internal organs. In the course of the experiment no loss of weight was observed or any change in behavior or external appearance, nor was there any loss of life. Based on the results of the macroscopic examination of internal organs of the animals in the test and the control groups, no pathological findings were made, [text missing]

## [H]/N=C(/N)N[C@H]1[C@H](O)[C@@H](O)[C@H](O[C@@H]2O[C@@H](C)[C@](O)(C=O)[C@H]2O[C@@H]2O[C@@H](CO)[C@H](O)[C@@H](O)[C@@H]2NC)[C@@H](N/C(N)=N\[H])[C@@H]1O [Streptomycin]
M. tuberculosis 61 (S)
  M. tuberculosis 61S growth: complete suppression of growth

## O=C1NC(=S)NC(=O)C1C(c1ccc(Cl)cc1)C1C(=O)NC(=S)NC1=O [IX]
[1]; 1 mg/l of the preparation
  Concentration of INF in induction mixture after 24 hrs. of incubation: 5,6 ± 0,8 IU/3·10^4 lymph/ml
[1]; 10 mg/l of the preparation
  Concentration of INF in induction mixture after 24 hrs. of incubation: 21,0 ± 0,9 IU/3·10^4 lymph/ml
[1]; 100 mg/l of the preparation
  Concentration of INF in induction mixture after 24 hrs. of incubation: 35,2 ± 1,6 IU/3·10^4 lymph/ml
[2]; 10 mg/l
  number of cells in 100 fields: 10000
[2]; 50 mg/l
  number of cells in 100 fields: 10000
[2]; 100 mg/l
  number of cells in 100 fields: 3000

## NNC(=O)c1ccncc1 [Isoniazid]
M. tuberculosis 61 (S)
  M. tuberculosis 61S growth: complete suppression of growth

## 2-hydroxyethylammonium salt of 5,5'-(p-nitrobenzylidene)bisbarbituric acid [III]
C. trachomatis D323; 10 mg/l
  percent protection of the cells against infection: 60%
  No. of unchanged cells: 7800
C. trachomatis D323; 100 mg/l
  percent protection of the cells against infection: 65%
  No. of unchanged cells: 7950
[2]; 10 mg/l
  number of cells in 100 fields: 2000
[2]; 50 mg/l
  number of cells in 100 fields: 3000
[2]; 100 mg/l
  number of cells in 100 fields: 5500

## pyridine salt of 5,5'-(p-bromobenzylidene)bisbarbituric acid [VIII]
[1]; 1 mg/l of the preparation
  Concentration of INF in induction mixture after 24 hrs. of incubation: 0,9 ± 0,2 IU/3·10^4 lymph/ml
[1]; 10 mg/l of the preparation
  Concentration of INF in induction mixture after 24 hrs. of incubation: 1,2 ± 0,4 IU/3·10^4 lymph/ml
[1]; 100 mg/l of the preparation
  Concentration of INF in induction mixture after 24 hrs. of incubation: 3,8 ± 0,4 IU/3·10^4 lymph/ml
[2]; 10 mg/l
  number of cells in 100 fields: 10000
[2]; 50 mg/l
  number of cells in 100 fields: 2500
[2]; 100 mg/l
  number of cells in 100 fields: 5000

## pyridine salt of 5,5'-(p-chlorobenzylidene)bis(2-thiobarbituric) acid [IV]
[1]; 1 mg/l of the preparation
  Concentration of INF in induction mixture after 24 hrs. of incubation: 1,3 ± 0,5 IU/3·10^4 lymph/ml
[1]; 10 mg/l of the preparation
  Concentration of INF in induction mixture after 24 hrs. of incubation: 3,7 ± 1,0 IU/3·10^4 lymph/ml
[1]; 100 mg/l of the preparation
  Concentration of INF in induction mixture after 24 hrs. of incubation: 23,0 ± 1,7 IU/3·10^4 lymph/ml
[2]; 10 mg/l
  number of cells in 100 fields: 10000
[2]; 50 mg/l
  number of cells in 100 fields: 2000
[2]; 100 mg/l
  number of cells in 100 fields: 4000

## CC[C@@H](CO)NCCN[C@@H](CC)CO [Ethambutol]
M. tuberculosis 61 (S)
  M. tuberculosis 61S growth: complete suppression of growth

## Nc1nc2c(ncn2COCCO)c(=O)[nH]1 [Acyclovir, reference compound]
[2]; 10 mg/l
  number of cells in 100 fields: 8000

## O=C1NC(=S)NC(=O)C1C(c1ccc([N+](=O)[O-])cc1)C1C(=O)NC(=S)NC1=O [X, 5,5'-(p-nitrobenzylidene)bis (2-thiobarbituric) acid]
[1]; 1 mg/l of the preparation
  Concentration of INF in induction mixture after 24 hrs. of incubation: 4.0 ± 0.5 IU/3·10^4 lymph/ml
[1]; 10 mg/l of the preparation
  Concentration of INF in induction mixture after 24 hrs. of incubation: 23 ± 1.0 IU/3·10^4 lymph/ml
[1]; 100 mg/l of the preparation
  Concentration of INF in induction mixture after 24 hrs. of incubation: 47 ± 0.8 IU/3·10^4 lymph/ml
M. tuberculosis 61 (S)
  M. tuberculosis 61S growth: complete suppression of growth
[2]; 10 mg/l
  number of cells in 100 fields: 10000
[2]; 50 mg/l
  number of cells in 100 fields: 10000
[2]; 100 mg/l
  number of cells in 100 fields: 3000
Acute toxicity in mice
  LD50 at 336 h: 1000 mg/kg
